Experiments:
Trypanosoma cruzi [1] = assay: Effect on proliferation of Trypanosoma cruzi Amastigotes in vero cells at a conc of 150 uM was determined; format: functional
Plasmodium falciparum = assay: Inhibition of Plasmodium falciparum 3D7 in erythrocytes; format: functional, organism-based
Vero [2] = assay: Percent infected vero cells was determined; format: functional
Trypanosoma brucei [3] = assay: Inhibition of Trypanosoma rhodesiense (strain STIB900) was determined using blood stream from trypomastigotes; format: functional, organism-based
Trypanosoma cruzi [4] = assay: Inhibition of Trypanosoma cruzi Amastigotes was determined in γ-irradiated L6E9 myoblasts culture and fetal calf serum
Leishmania donovani [5] = assay: Inhibition of L. donovani (Amastigotes) strain MHOM/ET/67/L82 maintained in female golden hamsters; format: functional, organism-based
Toxoplasma gondii = assay: Inhibition of Toxoplasma gondii tachyzoites in human foreskin fibroblast monolayer(DMEM with 10%fetal calf serum); format: functional, organism-based
Leishmania donovani [6] = assay: Inhibition of L. donovani (Amastigotes) strain MHOM/ET/67/L82 maintained in pathogen free spleen from female golden hamsters; toxic; format: functional, organism-based
Vero [7] = assay: Percent infected Vero cells was determined; format: functional
Leishmania donovani [8] = assay: Inhibition of L. donovani (Amastigotes) strain MHOM/ET/67/L82 maintained in pathogen free spleen from female golden hamsters; format: functional, organism-based
Trypanosoma cruzi [9] = assay: Inhibition of Trypanosoma cruzi Amastigotes was determined in γ-irradiated L6E9 myoblasts culture and fetal calf serum; remark: listed apart in the source
Trypanosoma cruzi [10] = assay: microbe, parasite or virus in culture
Description: Compound was evaluated for anti-parasitic activity against Trypanosoma cruzi

Trypanosoma brucei [11] = assay: Compound was evaluated for anti-parasitic activity against Trypanosoma brucei; format: functional, organism-based
Trypanosoma cruzi [12] = assay: Effect on inhibition on proliferation of Trypanosoma cruzi Amastigotes in vero cells at a conc of 150 uM; format: functional

Compound: O=P(O)(O)C(O)(CCc1cccnc1)P(=O)(O)O
- inhibition at 150 µM (Trypanosoma cruzi [1]): 81%
- IC50 (Plasmodium falciparum): > 200 µM
- Infected (Vero [2]): 6%
- IC50 (Trypanosoma brucei [3]): 1.7 µM
- IC50 (Trypanosoma cruzi [4]): > 200 µM
- IC50 (Leishmania donovani [5]): > 200 µM
- IC50 (Toxoplasma gondii; read-out: IC50): > 200 µM

Compound: NCCCCC(O)(P(=O)(O)O)P(=O)(O)O
- IC50 (Plasmodium falciparum): > 200 µM
- IC50 (Trypanosoma brucei [3]): > 200 µM
- IC50 (Trypanosoma cruzi [4]): > 200 µM
- IC50 (Leishmania donovani [5]): 129 µM
- IC50 (Toxoplasma gondii; read-out: IC50): > 200 µM

Compound: CCCCC(O)(P(=O)(O)O)P(=O)(O)O
- IC50 (Plasmodium falciparum): 56.7 µM
- IC50 (Trypanosoma brucei [3]): 99.8 µM
- IC50 (Trypanosoma cruzi [4]): > 200 µM
- IC50 (Leishmania donovani [5]): > 200 µM

Compound: CCCCCC(O)(P(=O)(O)O)P(=O)(O)O
- IC50 (Plasmodium falciparum): 5.1 µM
- IC50 (Trypanosoma brucei [3]): 62.4 µM
- IC50 (Trypanosoma cruzi [4]): > 200 µM
- IC50 (Leishmania donovani [5]): > 200 µM

Compound: O=P(O)(O)C(O)(Cc1c[nH]cn1)P(=O)(O)O
- IC50 (Plasmodium falciparum): > 200 µM
- IC50 (Leishmania donovani [6]): Toxic
- IC50 (Trypanosoma brucei [3]): 8.6 µM
- IC50 (Trypanosoma cruzi [4]): 35 µM

Compound: CCOP(=O)(OCC)C(Nc1ncccc1C)P(=O)(OCC)OCC
- inhibition at 150 µM (Trypanosoma cruzi [1]): 69%
- IC50 (Plasmodium falciparum): > 200 µM
- Infected (Vero [7]): 9%
- IC50 (Trypanosoma brucei [3]): 27.9 µM
- IC50 (Trypanosoma cruzi [4]): > 200 µM
- IC50 (Leishmania donovani [5]): 82.1 µM

Compound: Nc1ccc(CC(O)(P(=O)(O)O)P(=O)(O)O)cc1
- IC50 (Plasmodium falciparum): > 200 µM
- IC50 (Trypanosoma brucei [3]): 40 µM
- IC50 (Trypanosoma cruzi [4]): > 200 µM
- IC50 (Leishmania donovani [5]): > 200 µM
- IC50 (Toxoplasma gondii; read-out: IC50): 68.2 µM

Compound: O=P(O)(O)C(O)(Cc1ccccn1)P(=O)(O)O
- IC50 (Plasmodium falciparum): > 200 µM
- IC50 (Leishmania donovani [6]): Toxic
- IC50 (Trypanosoma brucei [3]): 0.22 µM
- IC50 (Trypanosoma cruzi [4]): 105 µM
- IC50 (Toxoplasma gondii; read-out: IC50): 9.1 µM

Compound: CCCC(O)(P(=O)(O)O)P(=O)(O)O
- IC50 (Plasmodium falciparum): 130 µM
- IC50 (Trypanosoma brucei [3]): 92 µM
- IC50 (Trypanosoma cruzi [4]): > 200 µM
- IC50 (Leishmania donovani [5]): > 200 µM
- IC50 (Toxoplasma gondii): 9.1 µM

Compound: Cc1cccnc1NC(P(=O)(O)O)P(=O)(O)O
- IC50 (Plasmodium falciparum): > 200 µM
- IC50 (Leishmania donovani [6]): Toxic
- IC50 (Trypanosoma brucei [3]): 0.7 µM
- IC50 (Trypanosoma cruzi [4]): 147 µM

Compound: CC(N)CC(O)(P(=O)(O)O)P(=O)(O)O (stereo unspecified)
- IC50 (Plasmodium falciparum): > 200 µM
- IC50 (Leishmania donovani [8]): > 200 µM
- IC50 (Trypanosoma brucei [3]): 7.8 µM
- IC50 (Trypanosoma cruzi [4]): > 200 µM

Compound: O=P(O)(O)C(O)(CSc1ccncc1)P(=O)(O)O
- inhibition at 150 µM (Trypanosoma cruzi [1]): 0%
- IC50 (Plasmodium falciparum): 158 µM
- Infected (Vero [7]): 33%
- IC50 (Trypanosoma brucei [3]): 19.8 µM
- IC50 (Trypanosoma cruzi [4]): > 200 µM
- IC50 (Leishmania donovani [5]): > 200 µM

Compound: O=P(O)(O)C(O)(Cc1ccncc1)P(=O)(O)O
- IC50 (Plasmodium falciparum): > 200 µM
- IC50 (Trypanosoma cruzi [9]): > 200 µM
- IC50 (Trypanosoma brucei [3]): > 200 µM
- IC50 (Leishmania donovani [5]): > 200 µM
- IC50 (Toxoplasma gondii; read-out: IC50): > 200 µM

Compound: O=P(O)(O)C(O)(Cc1ccccc1)P(=O)(O)O
- inhibition at 150 µM (Trypanosoma cruzi [1]): 6%
- IC50 (Plasmodium falciparum): 7.7 µM
- Infected (Vero [7]): 30%
- IC50 (Trypanosoma brucei [3]): 21.3 µM
- IC50 (Trypanosoma cruzi [4]): > 200 µM
- IC50 (Leishmania donovani [5]): > 200 µM

Compound: NCCCC(O)(P(=O)(O)O)P(=O)(O)O [ALENDRONIC ACID]
- IC50 (Plasmodium falciparum): > 200 µM
- IC50 (Trypanosoma brucei [3]): > 200 µM
- IC50 (Trypanosoma cruzi [4]): 25 µM
- IC50 (Leishmania donovani [5]): 82.5 µM

Compound: O=C(Cn1ccnc1[N+](=O)[O-])NCc1ccccc1 [BENZNIDAZOLE]
- IC50 (Trypanosoma cruzi [10]): 3.5 µM

Compound: NCCCCCC(O)(P(=O)(O)O)P(=O)(O)O [NERIDRONIC ACID]
- IC50 (Plasmodium falciparum): > 200 µM
- IC50 (Trypanosoma brucei [3]): 31.7 µM
- IC50 (Trypanosoma cruzi [4]): > 200 µM
- IC50 (Leishmania donovani [5]): > 200 µM

Compound: CN(C)CCC(O)(P(=O)(O)O)P(=O)(O)O [OLPADRONIC ACID]
- IC50 (Plasmodium falciparum): > 200 µM
- IC50 (Trypanosoma brucei [3]): 5.4 µM
- IC50 (Trypanosoma cruzi [4]): > 200 µM
- IC50 (Leishmania donovani [5]): > 200 µM

Compound: NCCC(O)(P(=O)(O)O)P(=O)(O)O [PAMIDRONIC ACID]
- IC50 (Plasmodium falciparum): > 200 µM
- IC50 (Leishmania donovani [6]): Toxic
- IC50 (Trypanosoma brucei [3]): 177 µM
- IC50 (Trypanosoma cruzi [4]): 60 µM
- IC50 (Toxoplasma gondii; read-out: IC50): 35.6 µM

Compound: N=C(N)c1ccc(OCCCCCOc2ccc(C(=N)N)cc2)cc1 [PENTAMIDINE]
- IC50 (Trypanosoma brucei [11]): 0.035 µM

Compound: O=P(O)(O)C(O)(Cc1cccnc1)P(=O)(O)O [RISEDRONIC ACID]
- IC50 (Plasmodium falciparum): 123 µM
- Infected (Vero [2]): 0%
- inhibition at 150 µM (Trypanosoma cruzi [12]): 100%
- IC50 (Trypanosoma brucei [3]): 8.6 µM
- IC50 (Trypanosoma cruzi [4]): 123 µM
- IC50 (Leishmania donovani [5]): 2.3 µM
- IC50 (Toxoplasma gondii; read-out: IC50): 0.49 µM
